{"source": "ChEMBL document CHEMBL1287770", "about": "“A protected l-bromophosphonomethylphenylalanine amino acid derivative (BrPmp) for synthesis of irreversible protein tyrosine phosphatase inhibitors” (Bioorg Med Chem, 2010)", "molecules": {"B1": {"name": "Receptor-type tyrosine-protein phosphatase C (Homo sapiens), P08575 (protein)", "chain": "MTMYLWLKLLAFGFAFLDTEVFVTGQSPTPSPTGLTTAKMPSVPLSSDPLPTHTTAFSPASTFERENDFSETTTSLSPDNTSTQVSPDSLDNASAFNTTGVSSVQTPHLPTHADSQTPSAGTDTQTFSGSAANAKLNPTPGSNAISDVPGERSTASTFPTDPVSPLTTTLSLAHHSSAALPARTSNTTITANTSDAYLNASETTTLSPSGSAVISTTTIATTPSKPTCDEKYANITVDYLYNKETKLFTAKLNVNENVECGNNTCTNNEVHNLTECKNASVSISHNSCTAPDKTLILDVPPGVEKFQLHDCTQVEKADTTICLKWKNIETFTCDTQNITYRFQCGNMIFDNKEIKLENLEPEHEYKCDSEILYNNHKFTNASKIIKTDFGSPGEPQIIFCRSEAAHQGVITWNPPQRSFHNFTLCYIKETEKDCLNLDKNLIKYDLQNLKPYTKYVLSLHAYIIAKVQRNGSAAMCHFTTKSAPPSQVWNMTVSMTSDNSMHVKCRPPRDRNGPHERYHLEVEAGNTLVRNESHKNCDFRVKDLQYSTDYTFKAYFHNGDYPGEPFILHHSTSYNSKALIAFLAFLIIVTSIALLVVLYKIYDLHKKRSCNLDEQQELVERDDEKQLMNVEPIHADILLETYKRKIADEGRLFLAEFQSIPRVFSKFPIKEARKPFNQNKNRYVDILPYDYNRVELSEINGDAGSNYINASYIDGFKEPRKYIAAQGPRDETVDDFWRMIWEQKATVIVMVTRCEEGNRNKCAEYWPSMEEGTRAFGDVVVKINQHKRCPDYIIQKLNIVNKKEKATGREVTHIQFTSWPDHGVPEDPHLLLKLRRRVNAFSNFFSGPIVVHCSAGVGRTGTYIGIDAMLEGLEAENKVDVYGYVVKLRRQRCLMVQVEAQYILIHQALVEYNQFGETEVNLSELHPYLHNMKKRDPPSEPSPLEAEFQRLPSYRSWRTQHIGNQEENKSKNRNSNVIPYDYNRVPLKHELEMSKESEHDSDESSDDDSDSEEPSKYINASFIMSYWKPEVMIAAQGPLKETIGDFWQMIFQRKVKVIVMLTELKHGDQEICAQYWGEGKQTYGDIEVDLKDTDKSSTYTLRVFELRHSKRKDSRTVYQYQYTNWSVEQLPAEPKELISMIQVVKQKLPQKNSSEGNKHHKSTPLLIHCRDGSQQTGIFCALLNLLESAETEEVVDIFQVVKALRKARPGMVSTFEQYQFLYDVIASTYPAQNGQVKKNNHQEDKIEFDNEVDKVKQDANCVNPLGAPEKLPEAKEQAEGSEPTSGTEGPEHSVNGPASPALNQGS"}}, "key": {"[1]": {"biological_target": "T1, Receptor-type tyrosine-protein phosphatase C (Homo sapiens) (UniProt P08575)", "T1 sequence (whole entry)": "B1 chain", "assay": "Competitive inhibition of human CD45-cytoplasmic domain", "conditions": "TDE = time-dependent effect"}, "[2]": {"biological_target": "T1, Receptor-type tyrosine-protein phosphatase C (Homo sapiens)", "assay": "Competitive inhibition of human CD45-cytoplasmic domain after 10 mins"}, "[3]": {"biological_target": "T2, Receptor-type tyrosine-protein phosphatase C (Homo sapiens, UniProt P08575)", "T2 sequence (P08575 whole entry)": "B1 chain", "assay": "Inhibition of human CD45-cytoplasmic domain at 150 uM after 10 mins by Kitz-Wilson analysis"}, "[4]": {"biological_target": "T2, Receptor-type tyrosine-protein phosphatase C", "assay": "Inhibition of human CD45-cytoplasmic domain at 1500 uM after 10 mins by Kitz-Wilson analysis"}, "[5]": {"compound": "N[C@@H](Cc1ccc(C(Br)P(=O)(O)O)cc1)C(=O)O", "assay": "Inhibition of human CD45-cytoplasmic domain at 150 uM after 10 mins by Michaelis-Menten equation analysis"}, "[6]": {"compound": "CC(C)C[C@H](NC(=O)[C@H](Cc1ccc(C(Br)P(=O)(O)O)cc1)NC(=O)[C@@H](N)CC(=O)O)C(=O)O", "assay": "Inhibition of human CD45-cytoplasmic domain at 35 uM after 10 mins by Michaelis-Menten equation analysis"}}, "note": "Activity calls are given as the source filed them. The rule behind the calls is not given here."}
{"molecule": "N[C@@H](Cc1ccc(C(Br)P(=O)(O)O)cc1)C(=O)O", "note": "(some centres not stated)", "values": [{"measurement": "inhibition", "setting": "[1]", "value": "tde"}, {"measurement": "inhibition", "setting": "[2]", "value": "inactive"}, {"measurement": "Ki", "setting": "[3]", "value": 40, "unit": "µM"}]}
{"molecule": "O=P(O)(O)C(Br)c1ccccc1", "note": "(configuration not stated) [[BROMO(PHENYL)METHYL]PHOSPHONIC ACID]", "values": [{"measurement": "Ki", "setting": "[4]", "value": "Not Active"}]}
{"molecule": "CC(C)C[C@H](NC(=O)[C@H](Cc1ccc(C(Br)P(=O)(O)O)cc1)NC(=O)[C@@H](N)CC(=O)O)C(=O)O", "note": "(some centres not stated)", "values": [{"measurement": "inhibition", "setting": "[2]", "value": "inactive"}]}
{"molecule": "B1", "values": [{"measurement": "Km", "setting": "[5]", "value": 141, "unit": "µM"}, {"measurement": "Km", "setting": "[6]", "value": 141, "unit": "µM"}]}
